Data as given in patent US10596166B2, “Combination composition comprising huperzine” (priority 2015, dated 2020).
Read-outs that look alike come from different tables or passages of the source.

Tests used:
[1] = system: nerve/muscle co-culture injured by glutamate; assay: glutamate toxicity on nerve/muscle co-culture (NMJ area, neurite network); format: cell-based, human muscle, rat spinal cord explants; conditions: glutamate 60 μM, 20 min
Procedure: Human muscle (promocell, Batch: 3061107) was prepared according to a previously described method from portions of a biopsy from a healthy subject (Braun et al., (1996) J. Neurol Sci. 136: 17-23). The human muscle cell line was established from dissociated cells (21 000 cells per wells), plated in gelatin-coated 0.1% (Sigma, Batch: 051M0012V) in water on 48 wells plate (greiner, Batch: E13111ME) and grows in a proliferation medium consisting of mix of 62% of MEM medium (PAN, Batch: 2761113) and 25% of M199 medium (PAN, Batch: 6720314) supplemented with glutamine 2 mM (PAN, Batch: 8150713), human insulin 10 μg/ml (PAN, Batch: 1481013), Human recombinant Epidermal growth factor 10 ng/ml (EGF, GIBCO, Batch: 1291552A), human recombinant Fibroblast growth factor basic 2 ng/ml (bFGF, PAN, Batch: H080113), foetal calf serum 10% (FCS, GIBCO, Batch: 41Q7218K) and 2% of Penicillin 10.000 U/ml and Streptomycin 10.000 μg/ml (PS, PAN, Batch: 1451013). The medium was changed every 2 days. Five days after the start of culture, immediately after satellite cell fusion, whole transverse slices of 13-day-old rat Wistar embryos (Janvier, France) spinal cords with 4 dorsal root ganglia (DRG) attached are placed on the muscle monolayer (one explant per well in the central area). DRG are necessary to achieve a good ratio of innervation. Innervated cultures were maintained in a mixed (67%/25%) medium composed of MEM and medium 199, supplemented with 5% FCS, insulin 5 μg/ml, glutamine 2 mM and 2% PS. After 24 h of co-culture, neurites were observed growing out of the spinal cord explants. These neurites made contacts with myotubes and induced the first contractions after ˜8 days. Quickly thereafter, innervated muscle fibres located in the proximity to the spinal cord explants, were virtually continuously contracting. Innervated fibres were morphologically and spatially distinct from the non-innervated ones and could easily be distinguished from them.
On day 27, co-cultures were pre-incubated 1 hour before glutamate application with test compounds (different concentrations) tested alone or in a mixture of the 3 compounds.
One hour after HA, CA or FA Compounds and mixture (HA/CA/FA) incubation, glutamate was added to a final concentration of 60 μM diluted in control medium still in presence of 3 compounds or mix of compounds for 20 min.
After 20 min injuries, co-cultures were washed and individual test compounds and mixture were added for an additional 48 h.
After 48 h, the cocultures were prepared for end points evaluation (see below).
After 48H of intoxication, cells were incubated with 500 nM α-bungarotoxin coupled with Alexa 488 (Molecular probes, Batch: 1434893) during 15 min in culture innervations medium at 37° C. to detect NMJ. After 2 washing in PBS (Pan Biotech, Batch: 7560414), cells were fixed by a solution of 4% of paraformaldehyde (Sigma Aldrich, Batch: SLBF7274V) in PBS, pH=7.3 for 20 min at room temperature.
The cells were washed 2 times in PBS and then permeabilized and non-specific sites were blocked with a solution of PBS containing 0.1% of saponin (Sigma-Aldrich, Batch: BCBJ8417V) and 1%0 FCS (Gibco, Batch: 41F0423K) for 15 min at room temperature, co-cultures were incubated with a mouse monoclonal anti-neurofilament 200 KD antibody (NF, Sigma Aldrich, Batch: 053M4756) at the dilution of 1/400 in PBS containing 1% FCS, 0.1% saponin, for 2 h at room temperature. Antibody against NF stained the axon of motor neuron. […] Nuclei of neurons were labeled by Hoechst solution, a nuclear fluorescent marker at […] in the same solution (Hoechst solution, SIGMA, batch: 011M4004V).
The NMJ mean size (area) of NMJs and the total length of neurite were assessed under the experimental conditions described above (see Combes et al., 2015). For each condition, 20 pictures per well were taken in the center area using ImageXpress (Molecular device) with 10× magnification. All images were taken under the same conditions. […]

[2] = system: Alzheimer's disease patients; conditions: particularly at a daily dose of 300-500 μg; cited from earlier work
[3] = system: Acetylcholinesterase (AChE)
Procedure: Test compounds alone or in association in mixture were solved at different concentrations in medium and then pre-incubated with kit of measure AchE (Promega, France).
Test compounds alone or in association in the NSP01-001-E001 prepared according to example 4 were solved at different concentrations in medium and then pre-incubated with kit of measure AchE (Promega, France).
Kit achetylcholinesterase (Abcam ref ab138871) was used. […] A 10-minutes incubation time was applied. The absorbance was assessed at 410 nm.
The activity of the AchE was evaluated versus an AchE activity standard curve.
Data were expressed in percentage of control conditions (no compound=100%). All values were expressed as mean+/−SEM (s.e.mean) (n=6 wells per condition per culture). Graphs and statistical analyses on the different conditions (ANOVA followed by PLSD Fisher's test when allowed, were performed using GraphPad Prism software version 5.0).

## C/C=C1\[C@H]2C=C(C)C[C@]1(N)c1ccc(=O)[nH]c1C2 [HA, huperzine A, reference compound]
[1]; HA 100 nM
  NMJ area (mean size): significance was observed
[1]; HA 100 nM, without reaching the significance
  neurite network (area of innervation): slight neuroprotection
[1]; HA, all concentrations tested
  NMJ area (mean size): slight protective effect
  neurite network (area of innervation): no neuronal protective effect
[2]
  tolerability and benefit: well-tolerated and beneficial

## COc1cc(/C=C/C(=O)O)ccc1O [FA, ferulic acid]
[1]; FA lowest and highest concentrations
  NMJ area (mean size): inactive
[1]; FA only at 100 nM
  NMJ area (mean size): able to protect
[1]; highest dose tested (10 μM)
  neurite network (area of innervation): moderate effect
[3]; 100 pM
  inhibition of AChE: ~8%

## O=C(O)/C=C/c1ccc(O)c(O)c1 [CA, caffeic acid]
[1]; CA added 1 h before glutamate
  neurite network (area of innervation): slight protection
[1]; CA highest dose (5 nM)
  neurite network (area of innervation): significance was observed
[1]; CA low concentrations
  NMJ area (mean size): unable to protect
[1]; only at the highest dose (5 nM)
  NMJ area (mean size): able to protect
[3]; 50 pM
  inhibition of AChE: ~8%
